Test results reported in patent US7125671B2, “Nucleic acid amplification with terminal-phosphate labeled nucleotides” (GE Healthcare Bio-Sciences Corp., priority 2003, dated 2006).

How the values were obtained:
[1] = Non-enzymatic hydrolysis of dT4P-DDAO in the presence of MnCl2, effect of ammonium sulfate and related salts (FIG. 4); format: physicochemical; settings: 10 mM salt; 0.5 mM MnCl2; 25 mM Tris.HCl pH 9.0; 95° C. for 60 minutes
Protocol: Four μl of each reaction mix was mixed with 16 μl of BAP solution in Hepes (0.005 units BAP/μl) and incubated at 37° C. for 60 minutes. Samples were read on Tecan ultra plate reader. Un heated sample and unheated sample without MnCl2 were used as controls. Raw fluorescence counts were converted into % degradation by using fluorescence counts from a Snake Venom phosphodiesterase hydrolyzed sample as 100% degraded sample.

[2] = Non-enzymatic hydrolysis of dT4P-DDAO in the presence of MnCl2, effect of other salts (FIG. 5); settings: 10 or 25 mM salt; 0.5 mM MnCl2; 25 mM Hepes pH 8.1; 95° C. for 60 minutes
Protocol: Twenty μl of 25 mM Hepes, pH 8.1, containing 0.5 mM MnCl2, 1 μm dT4P-DDAO and 10 or 25 mM inorganic or organic salt (see FIG. 5) was heated at 95° C. for 60 minutes. 4 μl of each sample was treated with BAP as described above and read on Tecan ultra plate reader. An unheated sample with MnCl2 (water lane) and a heated sample without Hepes and MnCl2 were used as controls. Fluorescence counts were converted into % degradation as described above.

T. ba polymerase = assay: PCR amplification with terminal-phosphate labeled nucleoside polyphosphates in the presence of stabilizing additives (FIG. 6); format: biochemical, Thermococcus barosii; settings: dT4P-Me, dC4P-Me, 0.25 mM MnCl2, M13 DNA, 35 cycles
Protocol: Polymerase chain reaction (PCR) mixtures (20 μl) contained 25 mM Hepes (pH 8.1), 10 mM KCl, 2 mM MgSO4, 0.25 mM MnCl2, 1 mg/ml bovine serum albumin, 0.01% (v/v) Tween-20 and 10–25 mM salt as shown in FIG. 6. Each sample also contained 20 μm each of dA4P-Me, dT4P-Me, dC4P-Me, 200 μm dG4P-FlEt, 0.006 units/μl BAP, 2 units of T. ba polymerase, 0.1 μm −40 M13 forward primer, 0.1 μm −28 M13 reverse primer and 0.2 ng M13 DNA. In addition to the terminal-phosphate labeled nucleotide, terminal methyl-blocked dNTP's were used instead of normal dNTP's to prevent degradation by BAP (phosphatase). Latter is required for signal generation from dye-polyphosphate after the nucleotide is incorporated into DNA by polymerase. Reactions were carried out for 35 thermal cycles of 90° C., 30 sec.; 55° C., 30 sec.; and 65° C., 300 sec. Reaction products were loaded onto 1.6% agarose gels. The gels were stained with SYBR Gold (Molecular Probes) according to the manufacturers' instructions and scanned at 532 nm using a Typhoon fluorescence scanner (Amersham Biosciences). Gel size markers were a 100 bp ladder (Amersham Biosciences).

[3] = target: pfu (with A486Y mutation) polymerase (Pyrococcus furiosus, UniProt P61875, A486Y); assay: Quantitative PCR with terminal-phosphate labeled nucleoside polyphosphates on ABI 7900; format: biochemical; settings: 200 μm dG4P-FlEt with dA4P-Me, dT4P-Me, dC4P-Me; BAP; 50 cycles; FIG. 7
Protocol: Polymerase chain reaction (PCR) mixtures (20 μl) contained 25 mM Tris.HCl (pH 9.0), 10 mM KCl, 2 mM MgSO4, 0.25 mM MnCl2, 1 mg/ml bovine serum albumin and 0.01% (v/v) Tween-20. Each sample also contained 20 μm each of dA4P-Me, dT4P-Me, dC4P-Me, 200 μm dG4P-FlEt, 0.005 units/μl BAP, 2 units of pfu (with A486Y mutation) polymerase, 0.1 μm −40 M13 forward primer, 0.1 μM −28 M13 reverse primer and 1.2×10^6–1.2×10^9 copies of M13 DNA. In addition to the terminal-phosphate labeled nucleotide, the remaining nucleotides were blocked with a methyl group on the terminal phosphate to prevent degradation by BAP. Reactions were carried out for 50 thermal cycles of 90° C., 30 sec.; 55° C., 30 sec.; and 65° C., 300 sec on ABI 7900 instrument.
Reaction products were also loaded onto 1.6% agarose gels. The gels were stained with SYBR Gold (Molecular Probes) according to the manufacturers' instructions and scanned at 532 nm using a Typhoon fluorescence scanner (Amersham Biosciences) to show the formation of PCR product (FIG. 8). Gel size markers were a 100 bp ladder (Amersham Biosciences).

Chain of pfu (with A486Y mutation) polymerase (P61875 whole entry A486Y): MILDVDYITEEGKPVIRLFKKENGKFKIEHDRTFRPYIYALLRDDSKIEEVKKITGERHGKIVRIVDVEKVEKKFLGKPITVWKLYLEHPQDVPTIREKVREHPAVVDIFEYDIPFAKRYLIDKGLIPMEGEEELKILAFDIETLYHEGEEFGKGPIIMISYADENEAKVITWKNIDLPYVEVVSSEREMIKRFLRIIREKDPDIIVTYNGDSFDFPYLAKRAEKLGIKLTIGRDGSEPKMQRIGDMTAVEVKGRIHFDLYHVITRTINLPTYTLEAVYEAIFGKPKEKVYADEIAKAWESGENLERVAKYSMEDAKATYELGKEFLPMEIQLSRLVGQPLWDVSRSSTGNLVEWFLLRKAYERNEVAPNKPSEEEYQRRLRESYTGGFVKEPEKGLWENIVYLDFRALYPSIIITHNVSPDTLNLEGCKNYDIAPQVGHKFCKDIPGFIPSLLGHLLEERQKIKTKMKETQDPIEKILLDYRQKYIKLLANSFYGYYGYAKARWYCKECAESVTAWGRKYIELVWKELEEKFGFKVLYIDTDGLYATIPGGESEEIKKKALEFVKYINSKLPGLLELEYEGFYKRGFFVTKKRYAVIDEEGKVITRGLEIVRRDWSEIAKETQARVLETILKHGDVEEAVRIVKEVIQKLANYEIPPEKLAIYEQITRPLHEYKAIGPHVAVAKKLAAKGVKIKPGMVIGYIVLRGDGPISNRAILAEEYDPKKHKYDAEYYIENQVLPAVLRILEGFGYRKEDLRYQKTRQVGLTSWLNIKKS

Structure (SMILES): N.N.O=S(=O)(O)O [ammonium sulfate]
- stabilization of dT4P-DDAO (% degradation) [1]: clearly stabilizes
- stabilization of dT4P-DDAO (% degradation) [2]: stabilize the nucleotide
- PCR product formation in the presence of the additive (T. ba polymerase; 10–25 mM salt, dA4P-Me, dG4P-FlEt): PCR product was separated

Structure (SMILES): CCOc1ccc2c(c1)Oc1cc(OP(=O)(O)OP(=O)(O)OP(=O)(O)OP(=O)(O)OC[C@H]3O[C@@H](n4cnc5c(=O)[nH]c(N)nc54)C[C@@H]3O)ccc1C21OC(=O)c2ccccc21 (some centres unmarked) [dG4P-FlEt, 2′-Deoxyguanosine-5′-(δ-3′-(6′-ethoxyfluorescein)) tetraphosphate]
- PCR product formation (T. ba polymerase; absence of any stabilizer, with dA4P-Me): PCR product was separated
- cycle count at fluorescence threshold plotted against input M13 DNA copies [3]: straight line
